# Legend:
# HUVEC cells = test: DNA damage, γH2AX foci immunofluorescence, HUVEC; type: cell-based
# Procedure: To test the ability of C60-ser to protect against radiation injury, the level of DNA damage in response to radiation was analyzed by measuring γH2AX. The H2AX protein becomes phosphorylated into γH2AX as a result of DNA double strand breaks. This allows for the visualization and quantification of double strand break foci through immunofluorescence analysis. Cells were plated on 8 chamber slides and incubated overnight before C60-ser treatment. Three sets of slides per cell line (to be irradiated with 0, 0.5, and 1 Gy) were prepared, with the top 4 rows used as a control and the bottom 4 rows incubated with 100 μM C60-ser. Cells were incubated with C60-ser for 2 hours before irradiation with a clinical Proteus One proton machine (Ion Beam Applications, Louvain-la-Neuve, Belgium). A 230 MeV mono-energetic unmodulated broad beam of large field size that encompassed all slides containing the cells was used to deliver the 0.5 and 1 Gy doses. White solid water slabs (IBA Dosimetry, Germany) provided the necessary phantom material to place the cells at the desired 8 cm depth with an LET of approximately 1.7 keV/μm. After irradiation, cells were incubated at 37° C. with 5% CO2 for 30 minutes before washing and fixing the cells with 1% formaldehyde. The cells were permeabilized with 1% NP-40 and incubated with 5% BSA to block unspecific antibody bonding. The cells were then incubated with γH2AX primary antibody followed by a secondary antibody. Mounting media containing DAPI was used before applying cover slips and sealing the samples. Cells were imaged on an Olympus IX71 trinocular inverted fluorescence phase contrast microscope with a 40× objective. The resulting images were analyzed by ImageJ, and the foci were counted.
# N2A cells [1] = test: MTS cytotoxicity assay, N2A; type: cell-based; conditions: 1-1000 μM, 24, 48 or 72 hours
# Procedure: Cytotoxicity of C60-ser was determined by an MTS (3-(4,5-dimethylthiazol-2-yl)-5-(3-carboxymethoxyphenyl)-2-(4-sulfophenyl)-2H-tetrazolim) colorimetric assay on four different cell lines, each representing a different cell type. Specifically, HepG2 (liver epithelium), HUVEC (endothelial cells), N2A (neuroblastoma cells representative of normal neurons), and NIH3T3 (fibroblasts) were analyzed. The cells were seed in a 96-well tissue culture polystyrene plate at different seeding concentrations based on the cell's doubling time. HUVEC cells were seeded at 10,000 cells/well (24 hour experiments), 8,000 cells/well (48 hour experiments), and 5,000 cells/well (72 hour experiments), and incubated for 24 hours in a humidified atmosphere with 5% C02 at 37° C. […] After incubation with MTS, the optical density (OD) of the resulting formazan solution was read at 490 nm using a microplate reader (Biotek Cytation 5 cell Imaging Multi-Mode reader, Winooski, VT). The cell viability was obtained by normalizing the absorbance of the sample with that of the control wells containing untreated cells. The cell viability was expressed as a percentage, assigning the viability of non-treated cells as 100%. […]
# N2A cells [2] = test: Classic clonogenics survival assay of irradiated cells, N2A; type: cell-based
# Procedure: A classic clonogenics assay was performed to further test the ability of C60-ser to protect against radiation damage. After irradiation, a fraction of the cells will undergo radiation-induced death, whereas other cells remain metabolically active and are able to undergo a few cycles of mitosis before meeting their endpoint. Since many cells remain metabolically activity, classic toxicity measurements such as an MTT measurement are not able to catch the full effects of radiation damage. In contrast, a classic clonogenics assay, which plates a known number of cells and tracks development of colonies, is able to track the number of cells that maintain their clonogenicity. With increasing radiation doses, the fraction of cells that maintain clonogenicity decrease. Therefore, a successful radioprotectant is able to increase the number of surviving colonies compared to the control at the same radiation doses.
# N2A, NIH3T3, and HepG2 cells were plated in 35 mm dishes and treated with 100 μM C60-ser for 2 hours prior to washing with PBS and irradiation at 0, 2, 4, and 6 Gy with a 230 MeV proton beam. Following radiation, a known number of cells were re-plated in six well plates and allowed to grow in culture for 8-14 days to allow for colony formation. To account for cell death with higher radiation doses, a larger number of cells were plated with increasing doses received. […]
# [3] = Zeta-potential of C60-ser aggregates; type: physicochemical; conditions: 0.1 mg/mL and 10 mg/mL in deionized water
# Procedure: Analysis was performed using a ZEN 3600 Malvern Zetasizer (Worcestershire, UK) equipped with a 633 nm laser. The electrophoretic mobilities (p) of the aggregates was measured by applying an electric field to the C60-ser solution and measuring the speed and direction of the aggregate's motion. Zeta-potentials were calculated using the solvent viscosity (n) and the water dielectric constant (e). To perform the measurements, C60-ser molecules were dissolved in deionized water, and the solution electrical conductivity was adjusted to 25-50 μS/cm by addition of small amounts of neutral 2-(N-morpholino)ethanesulfonic acid (MES) buffer. The zeta-potential of C60-ser aggregates was measured at a concentration of 0.1 mg/mL in deionized water (FIG. 5A) and 10 mg/mL in deionized water (FIG. 5B).
compound,measurement,setting,value
"O=C(NC(CO)CO)C1(C(=O)NC(CO)CO)C23c4c5c6c7c8c4-c4c2c2c9c%10c4C4%11c%12c-%10c%10c%13c%14c%12-c%12c(c-7c7c%15c%12C%14%12C(C(=O)NC(CO)CO)(C(=O)NC(CO)CO)C%12%14c%12c%16c%17c%18c(c%12-%15)C7%12C(C(=O)NC(CO)CO)(C(=O)NC(CO)CO)C6%12c6c-5c5c7c(c6-%18)C%176C(C(=O)NC(CO)CO)(C(=O)NC(CO)CO)C6%12c6c-7c(c-2c2c6-c6c%12c-%16c%14c-%13c6C%106C(C(=O)NC(CO)CO)(C(=O)NC(CO)CO)C926)C513)C84C%11(C(=O)NC(CO)CO)C(=O)NC(CO)CO (stereo not shown) [C60-ser, C60-serinol]",γH2AX foci vs control,HUVEC cells; 100 μM 2 hours before 0.5 Gy proton radiation,"trend towards reduction in total foci formed, but it was not statistically significant"
same,γH2AX foci vs control,HUVEC cells; 100 μM 2 hours before 1 Gy proton radiation,significant decrease in the number of foci
same,γH2AX foci vs control,"HUVEC cells; 100 μM 2 hours, absence of radiation",no significant different in foci expression
same,percent viability,N2A cells [1],did not result in a significant decrease in viability
same,fraction of surviving cells,N2A cells [2]; 100 μM 2 hours before irradiation,increased the fraction of surviving cells
same,dose enhancement factor (DEF) at 20% surviving fraction,"N2A cells [2]; 100 μM 2 hours, 0-6 Gy 230 MeV proton, one set of clonogenics",0.91
same,zeta-potentials of aggregates,[3],close to zero

# Source: patent US20240189263A1, “DERIVATIZED C60 MOLECULES AND METHODS AND MATERIALS FOR USING DERIVATIZED C60 MOLECULES TO REDUCE RADIATION INJURY” (Mayo Foundation for Medical Education and Research, priority 2021, published 2024)
